These results are taken from ChEMBL document CHEMBL5370556, “Optimization, and biological evaluation of 3-O-β-chacotriosyl betulinic acid amide derivatives as novel small-molecule Omicron” (Eur J Med Chem, 2023).

SMILES strings stand for the structures. Calls of active or inactive are those of the source. The rule behind the calls is not given here.

Type in all cases: functional, organism-based
Experiment [1] relates to SARS-CoV-2. The experiment can be described thus: Antiviral activity against luciferase-expressing pseudovirus encoding SARS-CoV-2 Omicron expressing S protein R765A/K964A mutant infected in human 293T/ACE2 cells assessed as reduction of viral growth measured after 48 hrs by luciferase assay. The conditions noted are these: Severe acute respiratory syndrome coronavirus 2.

Experiment [2] has as its system SARS-CoV-2. The experiment can be described thus: Antiviral activity against luciferase-expressing pseudovirus encoding SARS-CoV-2 Omicron expressing S protein L303A/E309A mutant infected in human 293T/ACE2 cells assessed as reduction of viral growth measured after 48 hrs by luciferase assay. The settings on record: Severe acute respiratory syndrome coronavirus 2.

In experiment [3] the test system is SARS-CoV-2. The experiment is described as follows: Antiviral activity against luciferase-expressing pseudovirus encoding SARS-CoV-2 Omicron expressing S protein L303A/E309A/R765A/K964A mutant infected in human 293T/ACE2 cells assessed as reduction of viral growth at 1.25 to 10 uM measured after 48 hrs by luciferase assay. The conditions noted are these: Severe acute respiratory syndrome coronavirus 2, dose 1.25-10 µM.

In the case of `C=C(C)[C@@H]1CC[C@]2(C(=O)Nc3ccc4ccccc4c3)CC[C@]3(C)[C@H](CC[C@@H]4[C@@]5(C)CC[C@H](O[C@@H]6O[C@H](CO)[C@@H](O[C@@H]7O[C@@H](C)[C@H](O)[C@@H](O)[C@H]7O)[C@H](O)[C@H]6O[C@@H]6O[C@@H](C)[C@H](O)[C@@H](O)[C@H]6O)C(C)(C)[C@@H]5CC[C@]43C)[C@@H]12`, the result in the experiment on SARS-CoV-2 [1] and in the experiment with SARS-CoV-2 [2] was Active. Moreover, the result in the experiment with SARS-CoV-2 [3] was inactive.
